Legend:
[1] = in vivo; cited from earlier work
[2] = intravenous administration; cited from earlier work
authentic variola virus = settings: cited from earlier work
[3] = Moisture content by Karl Fischer method; assay type: physicochemical; settings: Tray rehydration (18 hours bench top, 2 hours 25° C./60% RH or 2 hours 40° C./75% RH)

SMILES | Bioavailability [1] | Nephrotoxicity [2] | Variola virus replication (authentic variola virus) | Moisture (% w/w KF) [3] [% w/w]
Nc1ccn(C[C@@H](CO)OCP(=O)(O)O)c(=O)n1 [Cidofovir, (S)-1-(3-hydroxy-2-phosphonylmethoxypropyl)cytosine] | poorly bioavailable | dose-limiting nephrotoxicity | inhibit authentic variola virus replication | 
O=C(NN1C(=O)[C@@H]2[C@@H]3C=C[C@@H]([C@H]4C[C@@H]34)[C@@H]2C1=O)c1ccc(C(F)(F)F)cc1 [ST-246, N-[(3aR,4R,4aR,5aS,6S,6aS)-3,3a,4,4a,5,5a,6,6a-octahydro-1,3-dioxo-4,6-ethenocycloprop[f]isoindol-2(1H)-yl]-4-(trifluoromethyl)-benzamide] |  |  |  | ~4.5

Source: patent publication US10716759B2, “Rehydration of micronized tecovirimat monohydrate” (SIGA TECHNOLOGIES, INC., priority 2013, dated 2020)
